The test system of one experiment is Nrf-2. Nature of the experiment: Nrf-2 Activation Assay (Nrf-2 Assay). Conditions: 1 μM compound, 24 hours. Format: cell-based, human. The method, then: This assay was developed internally and was designed to determine if the novel test compounds disclosed herein active Nrf-2 and thereby promote resolution of inflammation by the mechanism believed to be responsible for the activity of omaveloxolone.
Briefly, GM03665 Friedreich Ataxia patient fibroblasts were grown in 12 Well Plates (TC Cell+F) (Sarstedt, Numbrecht Germany), at a density of […] in DMEM/F12 (Gibco, ThermoFisher Scientific, Waltham, MA, USA) cell media supplemented with 10% FBS and 1% Pen/Strep. Cells were left to rest overnight at 37° C. in a humidified atmosphere with 5% CO2 to allow attachment of the cells to the culture plate. Before continuing assay visual inspection of each well was done by light microscopy to detect any possible bacterial and fungal contamination. […] After incubation, cell media was removed and total RNA from the cells was isolated using E.Z.N.A.® Total RNA Kit I (Omega Bio-tek, Norcross, Georgia, USA) spin columns, and first-strand cDNA synthesis was carried out using a High Capacity cDNA Reverse Transcription Kit (Applied Biosystems™, Foster City, CA) following the manufacturer's instructions. qPCR analysis of gene expression was performed by mixing SYBR® Green Master Mix (Applied Biosystems™) with synthesized cDNA and forward and reverse primers. […] (60 cycles), and 95° C. for 60 seconds, followed by melt curve analysis at 72-95° C., 0.3° C./sec. The relative expression levels for each gene were calculated with the ΔΔCt method and normalized to the expression of REEP5 and SNRPD3 genes.

For experiment [1], the system named is frataxin deficient fibroblasts (GM03665). Format: cell-based. The conditions noted are these: summary of Table 7.
The subject of a further experiment is HepG2 cells. Nature of the experiment: Rotenone Oxygraph Assay (high-resolution respirometry of intact HepG2 cells). Format: cell-based, human. Conditions: for active in Complex I by-pass (in words): summary of Table 7 (Rotenone ATP and Rotenone Oxygraph assays). The method, then: The Oxygraph-2 k (O2k, OROBOROS INSTRUMENTS, Austria) was used for measurements of respiration of intact cells. The respirometry was performed in Dulbecco's Modified Eagle Medium (DMEM) high glucose without supplements. All experiments were performed at 37° C.
HepG2 cells (ATCC collection code HB-8065™) were cultured in 10 cm^2 culture dishes in DMEM high glucose medium supplemented with 10% fetal bovine serum (FBS) and 100 units/mL penicillin and 100 μg/mL streptomycin until approximately 90% confluence was reached. Immediately prior to performing the respirometric assay, the cells were washed with media without FBS, trypsinized and resuspended in DMEM high glucose without FBS.
The final concentration of intact cells in the O2k-chamber was 0.5·10^6/mL. After stabilization of respiration, the Complex I inhibitor, rotenone, at 1 μM final concentration was added to inhibit electron flux via Complex I. Then, compound to be tested was added at 10 μM final concentration, and the change in respiration rate of intact cells was monitored.

For another experiment, the system named is GM03665 cells. Nature of the experiment: RSL3 Toxicity Assay (RSL3 Assay). Format: cell-based, human. Conditions: protection of Friedreich's ataxia fibroblasts from RSL3. The method, then:
In brief, GM03665 cells (Coriell Institute) were seeded in 96-well plates (Sarstedt) in DMEM cell culture media containing 10% Fetal Bovine serum and 1% Penicillin-Streptomycin (Pen-Strep) antibiotic mix at the amount of 2×10^4/mL (100 μL or 2×10^3 cells per well). Cells were left to rest overnight at 37° C. in a humidified atmosphere with 5% CO2 to allow attachment of the cells to the culture plate. Test compounds were prepared as DMSO stocks (10 mM) and were serially diluted in cell culture media to obtain 2× working solutions. Cell media was discarded and replaced by 50 μL of test compound solutions or cell media with vehicle for control wells. Within 15 minutes, 2× working solution (4 μM) of 1S,3R-RSL3 (CAS #1219810-16-8, Sigma-Aldrich) (diluted from 5 mM DMSO stock in cell culture media) was added. Final reaction volume was 100 μL and final DMSO concentration in reaction was kept below 0.2% (v/v) and equal in all wells. Final RSL3 concentration was 2 μM and test compound final concentrations in reaction were up to 1000 nM. After 24 hours of incubation cell viability was assessed by MTT test. MTT (Sigma-Aldrich) solution 1 mg/mL in 1×PBS (pH=7,4) was prepared 1 hour before the assay and filtered through Filtropur S 0.2 filters (Sarstedt). […] Absorption at 570 and 650 nm was measured using Hidex Sense microplate reader.

With `CC1=C(C)C(=O)C(CC[C@](C)(O)CC/C=C(\C)CC/C=C(\C)CCC=C2COC2)=C(C)C1=O` [Compound E, 2-((R,6E,10E)-3-hydroxy-3,7,11-trimethyl-14-(oxetan-3-ylidene)tetradeca-6,10-dien-1-yl)-3,5,6-trimethylcyclohexa-2,5-diene-1,4-dione], the “activation of Nrf-2 responsive genes (in words, FIG. 7)” value (from here on “activation of Nrf-2 responsive genes”) in the experiment with Nrf-2 is reported as “do not activate”.
Take `COC1=C(OC)C(=O)C(CCCCCCCCCCO)=C(C)C1=O` [Idebenone, reference compound]: the “activity in the BSO assay (in words)” value in experiment [1] was “very weakly active/borderline inactive”.
Take `CC1(C)CC[C@]2(NC(=O)C(C)(F)F)CC[C@]3(C)[C@H](C(=O)C=C4[C@@]5(C)C=C(C#N)C(=O)C(C)(C)[C@@H]5CC[C@]43C)[C@@H]2C1` [Omaveloxolone, reference compound]: in the experiment on Nrf-2, the “activation of Nrf-2 responsive genes” value is given as “positive”. Besides, the “active in Complex I by-pass (in words)” value in the experiment on HepG2 cells is recorded as “are not”. In addition, the “activity in the RSL3 Assay (in words)” value in the experiment with GM03665 cells was “completely inactive”.
On to “(R)-2-(3-hydroxy-3-methyl-4-(3-(trimethylsilyl)propoxy)butyl)-3,5,6-trimethylcyclohexa-2,5-diene-1,4-dione [Compound M]”, for which the “activity in the BSO assay (in words)” value in experiment [1] was “active”. Further, the “activation of Nrf-2 responsive genes” value in the experiment on Nrf-2 is “do not activate”. In the experiment on Nrf-2 (GM03665 fibroblasts, qPCR of Nrf-2 responsive genes), the “Nrf-2 Assay (Table 7)” value is on record as “Inactive”. For the same molecule, the “Rotenone Oxygraph Assay % Increase (Table 7)” value with HepG2 cells (intact HepG2 cells, rotenone 1 μM, compound 10 μM) is recorded as 56.6 +/− 11.3%. Further, in the experiment on HepG2 cells (intact HepG2 cells, rotenone 1 μM, compound 10 μM, change in respiration rate), the “Percent increase in ATP (Rotenone Oxygraph Assay, Table 4)” value is 56.6 +/− 11.3%. The “active in Complex I by-pass (in words)” value with HepG2 cells is listed as “active”. For the same molecule, the “activity in the RSL3 Assay (in words)” value with GM03665 cells is on record as “active”.

For the origin of these results see patent US12049455B2, “Compositions and methods for the prevention and/or treatment of mitochondrial disease, including Friedreich's ataxia” (Stealth BioTherapeutics Inc., priority 2019, dated 2024).
